In US9670227B2, “Thienopyrimidine derivatives, a process for their preparation and pharmaceutical compositions containing them” (LES LABORATOIRES SERVIER, priority 2013, dated 2017):
Where two headings read alike, the source gives them in different places.

Columns and labels:
[1] = target: Mcl-1 protein (UniProtKB primary accession number: Q07820) (Homo sapiens, UniProt Q07820); assay: Inhibition of Mcl-1 by fluorescence polarisation, Method 1; type: binding; conditions: read-out: IC50 (M) Mcl-1 FP
Sequence of Mcl-1 protein (Q07820 whole entry): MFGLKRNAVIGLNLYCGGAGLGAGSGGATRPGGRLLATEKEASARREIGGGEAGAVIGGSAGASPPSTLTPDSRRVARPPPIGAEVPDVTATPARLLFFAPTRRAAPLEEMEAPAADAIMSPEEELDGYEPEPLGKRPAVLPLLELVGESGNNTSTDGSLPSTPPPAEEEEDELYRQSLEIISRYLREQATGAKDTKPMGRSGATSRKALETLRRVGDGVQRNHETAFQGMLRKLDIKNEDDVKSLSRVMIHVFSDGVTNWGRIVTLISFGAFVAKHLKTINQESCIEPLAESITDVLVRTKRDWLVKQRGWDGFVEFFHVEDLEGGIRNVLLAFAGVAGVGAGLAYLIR
How it was run: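 FP readout of relative binding potency. Mcl-1 5 nM final, fluorescein-labelled ligand 1 nM final; buffer 10 mM HEPES, 150 mM NaCl, 0.05% Tween 20, pH 7.4; 11-pt dilution series, 5% DMSO final.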

[2] = tested on: H929 multiple myeloma tumour line; assay: In vitro cytotoxicity, Microculture Tetrazolium Assay; type: cell-based
Method: The cytotoxicity studies were carried out on the H929 multiple myeloma tumour line.
The cells are distributed onto microplates and exposed to the test compounds for 48 hours.

[3] = fluorescence polarisation test, Method 2 values are underlined in the patent (underlining not visible here)
[4] = H929 cells, 48 hours exposure, MTT, read-out: IC50 (μM) MTT H929
[5] = Homo sapiens, NCI-H929, 48 h, H929 cells, 48 hours exposure, MTT, read-out: IC50 (μM) MTT H929
[6] = Homo sapiens, NCI-H929, 48 h, read-out: IC50 (μM) MTT H929, H929 cells, 48 hours exposure, MTT
[7] = fluorescence polarisation, Method 1, or Method 2

IC50 [1, 3] [M] | IC50 [1, 7] [M] | SMILES | IC50 [2, 4] [µM] | IC50 [2, 5] [µM] | IC50 [2, 6] [µM]
1.4e-08 |  | COc1ccccc1CC(Oc1ncnc2sc(-c3ccco3)c(-c3ccc(OC4CCNC4)c(Cl)c3C)c12)C(=O)O (single isomer, unassigned) [Example 306, (2R)-2-({(5Sa)-5-[3-chloro-2-methyl-4-((3R or S)-pyrrolidin-3-yloxy)phenyl]-6-(furan-2-yl)thieno[2,3-d]pyrimidin-4-yl}oxy)-3-(2-methoxyphenyl)propanoic acid] | 1.12 |  | 
1e-08 |  | COc1ccccc1CC(Oc1ncnc2sc(-c3ccco3)c(-c3ccc(OCC4CCCCN4C)c(Cl)c3C)c12)C(=O)O (single isomer, unassigned) [Example 309, (2R)-2-{[(5Sa)-5-{3-chloro-2-methyl-4-[((2S or R)-1-methylpiperidin-2-yl)methoxy]phenyl}-6-(furan-2-yl)thieno[2,3-d]pyrimidin-4-yl]oxy}-3-(2-methoxyphenyl)propanoic acid] |  | 1.48 | 
1.4e-08 |  | COc1ccccc1C[C@@H](Oc1ncnc2sc(-c3ccco3)c(-c3ccc(OCCN4CCN(C)CC4)c(F)c3C)c12)C(=O)O (single isomer, unassigned) [Example 334] |  |  | 0.968
 | 6.5e-08 | COc1ccccc1CC(Oc1ncnc2sc(C3CCCO3)c(-c3ccc(OCCN4CCN(C)CC4)c(Cl)c3C)c12)C(=O)O (single isomer, unassigned) [Example 591, (2R)-2-{[(5Sa)-5-{3-chloro-2-methyl-4-[2-(4-methylpiperazin-1-yl)ethoxy]phenyl}-6-((2R or S)-tetrahydrofuran-2-yl)thieno[2,3-d]pyrimidin-4-yl]oxy}-3-(2-methoxyphenyl)propanoic acid] |  | 1.67 | 
 | 4e-08 | COc1ccccc1C[C@@H](Oc1ncnc2sc(-c3ccc(F)cc3)c(-c3ccc(CCCN4CCN(C)CC4)c(Cl)c3C)c12)C(=O)O (single isomer, unassigned) [Example 654] |  |  | 2.08
 | 1.8e-08 | Cc1c(-c2c(-c3ccc(F)cc3)sc3ncnc(OC(Cc4ccccc4OCC(F)(F)F)C(=O)O)c23)ccc(OCC2CCCN2C)c1Cl (single isomer, unassigned) [Example 658, (2R)-2-{[(5Sa)-5-{3-chloro-2-methyl-4-[((2S or R)-1-methylpyrrolidin-2-yl)methoxy]phenyl}-6-(4-fluorophenyl)thieno[2,3-d]pyrimidin-4-yl]oxy}-3-[2-(2,2,2-trifluoroethoxy)phenyl]propanoic acid] |  | 1.71 | 
 | 3.86e-08 | COc1ccccc1C[C@@H](Oc1ncnc2sc(-c3ccc(F)cc3)c(-c3cc(F)c(OCCN4CCN(C)CC4)c(Cl)c3C)c12)C(=O)O (single isomer, unassigned) [Example 664] |  |  | 2.08
 | 2.7e-08 | COc1ccccc1C[C@@H](Oc1ncnc2sc(-c3cccc(F)c3F)c(-c3ccc(C#CCN4CCN(C)CC4)c(Cl)c3C)c12)C(=O)O (single isomer, unassigned) [Example 717] |  |  | 0.865
 | 9.06e-09 | COc1ccccc1-c1nccc(COc2ccccc2CC(Oc2ncnc3sc(-c4ccc(Oc5ccccc5)cc4)c(-c4ccc(OCCN5CCN(C)CC5)c(Cl)c4C)c23)C(=O)O)n1 (single isomer, unassigned) [Example 759] |  | 0.054 | 
 | 1.18e-09 | COc1ccc(-c2sc3ncnc(OC(Cc4ccccc4OCc4ccnc(-c5ccccc5OC)n4)C(=O)O)c3c2-c2ccc(OCCN3CCN(C)CC3)c(Cl)c2C)cc1 (single isomer, unassigned) [Example 760] | 0.004 |  | 
 | 1.07e-07 | COc1ccc(-c2sc3ncnc(OC(Cc4ccccc4OCc4ccnc(-c5ccccc5OC)n4)C(=O)O)c3c2-c2ccc(OCCN3CCN(C)CC3)c(Cl)c2C)cc1 (single isomer, unassigned) [Example 761] | 0.148 |  | 
 | 1.35e-09 | COc1ccccc1-c1nccc(COc2ccccc2CC(Oc2ncnc3sc(-c4ccc(OCCN5CCOCC5)cc4)c(-c4ccc(OCCN5CCN(C)CC5)c(Cl)c4C)c23)C(=O)O)n1 (single isomer, unassigned) [Example 764] |  | 0.019 | 
 | 3.66e-09 | COc1ccccc1-c1nccc(COc2ccccc2CC(Oc2ncnc3sc(-c4ccc(OCCc5ccccc5)cc4)c(-c4ccc(OCCN5CCN(C)CC5)c(Cl)c4C)c23)C(=O)O)n1 (single isomer, unassigned) [Example 766] |  | 0.037 | 
1.6e-08 |  | Cc1c(-c2c(-c3ccc(F)cc3)sc3ncnc(OC(Cc4ccccc4OCC(F)F)C(=O)O)c23)ccc(OCCN2CCN(C)CC2)c1Cl [Example 4, (2R)-2-{[(5Sa)-5-{3-chloro-2-methyl-4-[2-(4-methylpiperazin-1-yl)ethoxy]phenyl}-6-(4-fluorophenyl)thieno[2,3-d]pyrimidin-4-yl]oxy}-3-[2-(2,2-difluoroethoxy)phenyl]propanoic acid] |  | 0.192 | 
8.6e-09 |  | COc1cc(COc2ccccc2CC(Oc2ncnc3sc(-c4ccc(F)cc4)c(-c4ccc(OCCN5CCN(C)CC5)c(Cl)c4C)c23)C(=O)O)nc(-c2ccccc2)n1 [Example 7, (2R)-2-{[(5Sa)-5-{3-chloro-2-methyl-4-[2-(4-methylpiperazin-1-yl)ethoxy]phenyl}-6-(4-fluorophenyl)thieno[2,3-d]pyrimidin-4-yl]oxy}-3-{2-[(6-methoxy-2-phenylpyrimidin-4-yl)methoxy]phenyl}propanoic acid] |  | 0.066 | 
1.6e-08 |  | COc1cc(COc2ccccc2CC(Oc2ncnc3sc(-c4ccc(F)cc4)c(-c4ccc(OCCN5CCN(C)CC5)c(Cl)c4C)c23)C(=O)O)nc(OC)n1 [Example 8, (2R)-2-{[(5Sa)-5-{3-chloro-2-methyl-4-[2-(4-methylpiperazin-1-yl)ethoxy]phenyl}-6-(4-fluorophenyl)thieno[2,3-d]pyrimidin-4-yl]oxy}-3-{2-[(2,6-dimethoxypyrimidin-4-yl)methoxy]phenyl}propanoic acid] |  | 0.145 | 
9.3e-09 |  | Cc1cc(COc2ccccc2CC(Oc2ncnc3sc(-c4ccc(F)cc4)c(-c4ccc(OCCN5CCN(C)CC5)c(Cl)c4C)c23)C(=O)O)no1 [Example 9, (2R)-2-{[(5Sa)-5-{3-chloro-2-methyl-4-[2-(4-methylpiperazin-1-yl)ethoxy]phenyl}-6-(4-fluorophenyl)thieno[2,3-d]pyrimidin-4-yl]oxy}-3-{2-[(5-methyl-1,2-oxazol-3-yl)methoxy]phenyl}propanoic acid] |  | 0.363 | 
9.7e-09 |  | Cc1c(-c2c(-c3ccc(F)cc3)sc3ncnc(OC(Cc4ccccc4OCc4ccc(F)cn4)C(=O)O)c23)ccc(OCCN2CCN(C)CC2)c1Cl [Example 10, (2R)-2-{[(5Sa)-5-{3-chloro-2-methyl-4-[2-(4-methylpiperazin-1-yl)ethoxy]phenyl}-6-(4-fluorophenyl)thieno[2,3-d]pyrimidin-4-yl]oxy}-3-{2-[(5-fluoropyridin-2-yl)methoxy]phenyl}propanoic acid] |  | 0.275 | 
4.4e-08 |  | Cc1c(-c2c(-c3ccc(F)cc3)sc3ncnc(OC(Cc4ccccc4OCc4cccc(-c5ccco5)n4)C(=O)O)c23)ccc(OCCN2CCN(C)CC2)c1Cl [Example 11, (2R)-2-{[(5Sa)-5-{3-chloro-2-methyl-4-[2-(4-methylpiperazin-1-yl)ethoxy]phenyl}-6-(4-fluorophenyl)thieno[2,3-d]pyrimidin-4-yl]oxy}-3-(2-{[6-(furan-2-yl)pyridin-2-yl]methoxy}phenyl)propanoic acid] |  | 0.13 | 
1.6e-08 |  | Cc1c(-c2c(-c3ccc(F)cc3)sc3ncnc(OC(Cc4ccccc4OCc4cccc(N5CCOCC5)n4)C(=O)O)c23)ccc(OCCN2CCN(C)CC2)c1Cl [Example 12, (2R)-2-{[(5Sa)-5-{3-chloro-2-methyl-4-[2-(4-methylpiperazin-1-yl)ethoxy]phenyl}-6-(4-fluorophenyl)thieno[2,3-d]pyrimidin-4-yl]oxy}-3-(2-{[6-(morpholin-4-yl)pyridin-2-yl]methoxy}phenyl)propanoic acid] |  | 0.076 | 
2.2e-08 |  | CCOc1cccc(COc2ccccc2CC(Oc2ncnc3sc(-c4ccc(F)cc4)c(-c4ccc(OCCN5CCN(C)CC5)c(Cl)c4C)c23)C(=O)O)n1 [Example 13, (2R)-2-{[(5Sa)-5-{3-chloro-2-methyl-4-[2-(4-methylpiperazin-1-yl)ethoxy]phenyl}-6-(4-fluorophenyl)thieno[2,3-d]pyrimidin-4-yl]oxy}-3-{2-[(6-ethoxypyridin-2-yl)methoxy]phenyl}propanoic acid] |  | 0.146 | 

SMILES | IC50 [1, 3] [M] | IC50 [1, 7] [M] | IC50 [2, 4] [µM] | IC50 [2, 5] [µM] | IC50 [2, 6] [µM]
COc1ccccc1CC(Oc1ncnc2sc(-c3ccco3)c(-c3ccc(OC4CN5CCC4CC5)c(Cl)c3C)c12)C(=O)O (single isomer, unassigned) [Example 307, (2R)-2-({(5Sa)-5-[4-((3S or R)-1-azabicyclo[2.2.2]oct-3-yloxy)-3-chloro-2-methylphenyl]-6-(furan-2-yl)thieno[2,3-d]pyrimidin-4-yl}oxy)-3-(2-methoxyphenyl)propanoic acid] | 8.3e-09 |  |  | 0.998 | 
COc1ccccc1CC(Oc1ncnc2sc(-c3ccco3)c(-c3ccc(OC4CN5CCC4CC5)c(Cl)c3C)c12)C(=O)O (single isomer, unassigned) [Example 308, (2R)-2-({(5Sa)-5-[4-((3R or S)-1-azabicyclo[2.2.2]oct-3-yloxy)-3-chloro-2-methylphenyl]-6-(furan-2-yl)thieno[2,3-d]pyrimidin-4-yl}oxy)-3-(2-methoxyphenyl)propanoic acid] | 5.9e-09 |  | 1.5 |  | 
